Experimental data from ChEMBL document CHEMBL1955821, “Biotransformations of 6',7'-dihydroxybergamottin and 6',7'-epoxybergamottin by the citrus-pathogenic fungi diminish cytochrome P450 3A4 inhibitory activity” (Bioorg Med Chem Lett, 2012).

Assays:
[1] = Drug metabolism in Penicillium ulaiense assessed as 6,7-furano-5-(6',7'-dihydroxygeranyloxy)-2-hydroxy-hydrocoumaric acid level at 78.2 uM after 5 days; assay type: ADME; details: 120 h
Botrytis cinerea [2] = assay: Drug metabolism in Botrytis cinerea assessed as compound level at 78.2 uM after 5 days; assay type: ADME, organism-based; details: in vivo, 120 h
[3] = Drug metabolism in Penicillium ulaiense assessed as production of 6,7-furano-5-(6',7'-dihydroxygeranyloxy)-2-hydroxy-hydrocoumaric acid at 23.7 uM upto 10 days; assay type: ADME; details: 240 h
Penicillium digitatum [4] = assay: Drug metabolism in Penicillium digitatum assessed as 6',7'-dihydroxybergamottin level at 78.2 uM after 5 days; assay type: ADME, organism-based; details: in vivo, 120 h
Geotrichum [5] = assay: Drug metabolism in Geotrichum citri assessed as production of 6,7-furano-5-(6',7'-dihydroxygeranyloxy)-2-hydroxy-hydrocoumaric acid at 23.7 uM after 2 days; assay type: ADME, organism-based; details: in vivo, 48 h
[6] = Drug metabolism in Penicillium ulaiense assessed as production of bergaptol at 23.7 uM up to 10 days; assay type: ADME; details: 240 h
[7] = Drug metabolism in Phomopsis citri assessed as bergaptol level at 78.2 uM after 5 days; assay type: ADME; details: diaporthe citri, 120 h
Lasiodiplodia theobromae [8] = assay: Drug metabolism in Lasiodiplodia theobromae assessed as bergaptol level at 78.2 uM after 5 days; assay type: ADME, organism-based; details: in vivo, 120 h
Lasiodiplodia theobromae [9] = assay: Drug metabolism in Lasiodiplodia theobromae assessed as compound level at 78.2 uM after 5 days; assay type: ADME, organism-based; details: in vivo, 120 h
[10] = Drug metabolism in Penicillium ulaiense assessed as 6',7'-dihydroxybergamottin level at 78.2 uM after 5 days; assay type: ADME; details: 120 h
Botrytis cinerea [11] = assay: Drug metabolism in Botrytis cinerea assessed as 6',7'-dihydroxybergamottin level at 78.2 uM after 5 days; assay type: ADME, organism-based; details: in vivo, 120 h
Geotrichum [12] = assay: Drug metabolism in Geotrichum citri assessed as compound level at 78.2 uM after 5 days; assay type: ADME, organism-based; details: in vivo, 120 h
Botrytis cinerea [13] = assay: Drug metabolism in Botrytis cinerea assessed as 6,7-furano-5-(6',7'-dihydroxygeranyloxy)-2-hydroxy-hydrocoumaric acid level at 78.2 uM after 5 days; assay type: ADME, organism-based; details: in vivo, 120 h
[14] = Drug metabolism in Phomopsis citri assessed as compound level at 78.2 uM after 5 days; assay type: ADME; details: diaporthe citri, 120 h
[15] = Drug metabolism in Penicillium ulaiense assessed as compound level at 78.2 uM after 5 days; assay type: ADME; details: 120 h
[16] = Drug metabolism in submerged cultures of Penicillium ulaiense assessed as decrease in compound concentration at 23.7 uM after 8 days; assay type: ADME; details: 192 h
Lasiodiplodia theobromae [17] = assay: Drug metabolism in Lasiodiplodia theobromae assessed as 6',7'-dihydroxybergamottin level at 78.2 uM after 5 days; assay type: ADME, organism-based; details: in vivo, 120 h
[18] = Drug metabolism in Penicillium ulaiense assessed as decrease in 6',7'-dihydroxybergamottin level at 23.7 uM after 4 days; assay type: ADME; details: 96 h
Geotrichum [19] = assay: Drug metabolism in Geotrichum citri assessed as bergaptol level at 78.2 uM after 5 days; assay type: ADME, organism-based; details: in vivo, 120 h
[20] = Drug metabolism in submerged cultures of Penicillium ulaiense assessed as decrease in compound concentration at 23.7 uM after 2 days; assay type: ADME; details: read-out: Drug metabolism
Geotrichum [21] = assay: Drug metabolism in Geotrichum citri assessed as 6,7-furano-5-(6',7'-dihydroxygeranyloxy)-2-hydroxy-hydrocoumaric acid level at 78.2 uM after 5 days; assay type: ADME, organism-based; details: in vivo, 120 h
Geotrichum [22] = assay: Drug metabolism in Geotrichum citri assessed as 6',7'-dihydroxybergamottin level at 78.2 uM after 5 days; assay type: ADME, organism-based; details: in vivo, 120 h
[23] = Drug metabolism in Penicillium ulaiense assessed as bergaptol level at 78.2 uM after 5 days; assay type: ADME; details: 120 h
Penicillium digitatum [24] = assay: Drug metabolism in Penicillium digitatum assessed as 6,7-furano-5-(6',7'-dihydroxygeranyloxy)-2-hydroxy-hydrocoumaric acid level at 78.2 uM after 5 days; assay type: ADME, organism-based; details: in vivo, 120 h
[25] = Drug metabolism in Penicillium ulaiense assessed as production of 6,7-furano-5-(6',7'-dihydroxygeranyloxy)-2-hydroxy-hydrocoumaric acid at 23.7 uM after 2 days; assay type: ADME; details: 48 h
Penicillium digitatum [26] = assay: Drug metabolism in Penicillium digitatum assessed as compound level at 78.2 uM after 5 days; assay type: ADME, organism-based; details: in vivo, 120 h
[27] = Drug metabolism in Phomopsis citri assessed as 6',7'-dihydroxybergamottin level at 78.2 uM after 5 days; assay type: ADME; details: diaporthe citri, 120 h
[28] = Drug metabolism in Phomopsis citri assessed as 6,7-furano-5-(6',7'-dihydroxygeranyloxy)-2-hydroxy-hydrocoumaric acid level at 78.2 uM after 5 days; assay type: ADME; details: diaporthe citri, 120 h
Lasiodiplodia theobromae [29] = assay: Drug metabolism in Lasiodiplodia theobromae assessed as 6,7-furano-5-(6',7'-dihydroxygeranyloxy)-2-hydroxy-hydrocoumaric acid level at 78.2 uM after 5 days; assay type: ADME, organism-based; details: in vivo, 120 h
Cytochrome P450 3A4 = Cytochrome P450 3A4 (Homo sapiens, UniProt P08684); assay: Inhibition of CYP3A4 after 30 mins by fluorescence assay; assay type: ADME
Sequence of Cytochrome P450 3A4 (P08684 whole entry): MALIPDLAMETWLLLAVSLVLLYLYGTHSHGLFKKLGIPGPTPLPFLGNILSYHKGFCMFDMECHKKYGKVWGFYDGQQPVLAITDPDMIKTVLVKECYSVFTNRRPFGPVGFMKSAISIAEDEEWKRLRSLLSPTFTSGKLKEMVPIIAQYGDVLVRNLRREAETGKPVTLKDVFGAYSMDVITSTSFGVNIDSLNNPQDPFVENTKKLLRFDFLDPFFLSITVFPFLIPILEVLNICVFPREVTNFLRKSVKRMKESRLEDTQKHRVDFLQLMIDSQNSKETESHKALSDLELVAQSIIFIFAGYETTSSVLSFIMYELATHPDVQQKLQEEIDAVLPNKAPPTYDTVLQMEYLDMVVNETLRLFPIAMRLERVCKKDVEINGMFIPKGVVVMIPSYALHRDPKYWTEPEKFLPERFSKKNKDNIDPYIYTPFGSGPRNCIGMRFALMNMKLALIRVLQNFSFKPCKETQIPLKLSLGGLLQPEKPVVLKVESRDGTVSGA

Question: Which Drug metabolism [1] does the source give for `C/C(=C\COc1c2ccoc2cc2oc(=O)ccc12)CCC1OC1(C)C` (stereo unspecified) [6',7'-EPOXYBERGAMOTTIN] here?
Answer: 46.6 µM

Question: And the Drug metabolism (Botrytis cinerea [2])?
Answer: 1.3 µM

Question: What about the Drug metabolism [3] of the same compound?
Answer: Active

Question: What about the Drug metabolism (Penicillium digitatum [4]) of the same compound?
Answer: 8.3 µM

Question: What about the Drug metabolism (Geotrichum [5]) of the same compound?
Answer: 7.4 µM

Question: What about the Drug metabolism [6] of the same compound?
Answer: Active

Question: What about the Drug metabolism [7] of the same compound?
Answer: 0.7 µM

Question: What about the Drug metabolism (Lasiodiplodia theobromae [8]) of the same compound?
Answer: 10.3 µM

Question: And the Drug metabolism (Lasiodiplodia theobromae [9])?
Answer: 1.1 µM

Question: And the Drug metabolism [10]?
Answer: 0.5 µM

Question: And the Drug metabolism (Botrytis cinerea [11])?
Answer: 5 µM

Question: What about the Drug metabolism (Geotrichum [12]) of the same compound?
Answer: 8.2 µM

Question: And the Drug metabolism (Botrytis cinerea [13])?
Answer: 25.1 µM

Question: And the Drug metabolism [14]?
Answer: 1.3 µM

Question: And the Drug metabolism [15]?
Answer: 0.7 µM

Question: What about the Drug metabolism [16] of the same compound?
Answer: Active

Question: What about the Drug metabolism (Lasiodiplodia theobromae [17]) of the same compound?
Answer: 23.9 µM

Question: What about the Drug metabolism [18] of the same compound?
Answer: Active

Question: What about the Drug metabolism (Geotrichum [19]) of the same compound?
Answer: 3.9 µM

Question: And the metabolised at 48 h, 23.7 µM [20]?
Answer: > 90%

Question: What about the Drug metabolism (Geotrichum [21]) of the same compound?
Answer: 24.3 µM

Question: And the Drug metabolism (Geotrichum [22])?
Answer: 7.3 µM

Question: And the Drug metabolism [23]?
Answer: 0.3 µM

Question: What about the Drug metabolism (Penicillium digitatum [24]) of the same compound?
Answer: 32 µM

Question: What about the Drug metabolism [25] of the same compound?
Answer: < 0.5 µM

Question: And the Drug metabolism (Penicillium digitatum [26])?
Answer: 0.1 µM

Question: What about the Drug metabolism [27] of the same compound?
Answer: 3.3 µM

Question: And the Drug metabolism [28]?
Answer: 4.1 µM

Question: And the Drug metabolism (Lasiodiplodia theobromae [29])?
Answer: 12.6 µM

Question: Which IC50 (Cytochrome P450 3A4) does the source give for `C/C(=C\COc1c(CCC(=O)O)c(O)cc2occc12)CCC(O)C(C)(C)O` (stereo unspecified) here?
Answer: > 172000 nM

Question: For `C/C(=C\COc1c2ccoc2cc2oc(=O)ccc12)CC[C@@H](O)C(C)(C)O`, which IC50 (Cytochrome P450 3A4) is on record?
Answer: 810 nM
